According to ChEMBL document CHEMBL1201862, “PubChem BioAssay data set” (2004):
“And” between values parts separate entries of the source, which are not always exact repeats. Equal values may be shown once.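 Assay format: 96-well plates, 48-hour exposure. GI50: concentration for 50% inhibition of growth.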 The source made the active and inactive calls. Rule as the data show it: active = GI50 up to about 1.1 µM and inactive = higher.

What was measured:
Assay in all cases: growth of human tumour cells (NCI), 48 h
[1] = system: LXFL 529
[2] = system: CCRF-CEM
[3] = system: RPMI-8226
[4] = system: OVCAR-8
[5] = system: HCC 2998
[6] = system: SF-268
[7] = system: HCT-116
[8] = system: OVCAR-3
[9] = system: COLO 205
[10] = system: ACHN
[11] = system: A498
[12] = system: SNB-75
[13] = system: MOLT-4
[14] = system: K562
[15] = system: RXF 393
[16] = system: Malme-3M

Compound	GI50 [1]	GI50 [2]	GI50 [3]	GI50 [4]	GI50 [5]	GI50 [6]	GI50 [7]	GI50 [8]	GI50 [9]	GI50 [10]	GI50 [11]	GI50 [12]	GI50 [13]	GI50 [14]	GI50 [15]	GI50 [16]
CCCCCn1cnc2c1S(=O)(=O)N(C)C(NC(=O)c1ccccc1)=N2	> 100 µM (inactive)	> 100 µM (inactive)	> 100 µM (inactive)	> 100 µM (inactive)	> 100 µM (inactive)	> 100 µM (inactive)	> 100 µM (inactive)	> 100 µM (inactive)	> 100 µM (inactive)	> 100 µM (inactive)	> 100 µM (inactive)	> 100 µM (inactive)	> 100 µM (inactive)	> 100 µM (inactive)	–	–
O=CC(O)C(O)C(O)COc1cc(CO)cc2c1C(=O)c1ccccc1C2=O (configuration not stated)	> 100 µM (inactive)	> 100 µM (inactive)	> 100 µM (inactive)	> 100 µM (inactive)	> 100 µM (inactive)	> 100 µM (inactive)	> 100 µM (inactive)	76.4 µM (inactive)	> 100 µM (inactive)	> 31.6 µM (inactive)	> 100 µM (inactive)	> 100 µM (inactive)	> 100 µM (inactive)	> 100 µM (inactive)	> 100 µM (inactive)	98.9 µM (inactive)
O=S1(=O)c2ccccc2N=C(c2ccccc2Cl)CC1c1ccc(F)cc1 (configuration not stated)	17.8 µM (inactive)	14.1 µM (inactive)	3.4 µM (inactive)	21.5 µM (inactive)	14.2 µM (inactive)	22.1 µM (inactive)	10.8 µM (inactive)	14.3 µM (inactive)	21.5 µM (inactive)	18.4 µM (inactive)	17.5 µM (inactive)	25.5 µM (inactive)	13.7 µM (inactive)	7.62 µM (inactive)	6.68 µM (inactive)	20 µM (inactive)
C/C(=N\NC(=O)c1ccccc1O)C1=CNc2ccccc2S1	0.875 µM (active)	3.35 µM (inactive)	4.9 µM (inactive)	3.7 µM (inactive)	2.98 µM (inactive)	3.61 µM (inactive)	3.66 µM (inactive)	3.01 µM (inactive)	–	4.56 µM (inactive)	3.8 µM (inactive)	8.2 µM (inactive)	2.08 µM (inactive)	3.75 µM (inactive)	–	3.1 µM (inactive)
Nc1nc(SCc2ccc([N+](=O)[O-])cc2)nc2c1ncn2C1OC(CO)C(O)C1O (configuration not stated)	78.5 µM (inactive)	> 100 µM (inactive)	> 100 µM (inactive)	> 100 µM (inactive)	> 100 µM (inactive)	> 100 µM (inactive)	> 100 µM (inactive)	> 100 µM (inactive)	> 100 µM (inactive)	> 100 µM (inactive)	> 100 µM (inactive)	–	> 100 µM (inactive)	> 100 µM (inactive)	> 100 µM (inactive)	> 100 µM (inactive)
CN(C)C(=N)NC(N)=S	> 100 µM (inactive)	–	> 100 µM (inactive)	> 100 µM (inactive)	> 100 µM (inactive)	> 100 µM (inactive)	> 100 µM (inactive)	> 100 µM (inactive)	> 100 µM (inactive)	> 100 µM (inactive)	> 100 µM (inactive)	> 100 µM (inactive)	> 100 µM (inactive)	> 100 µM (inactive)	> 100 µM (inactive)	> 100 µM (inactive)
[N-]=[N+]=NC(c1cn(C2CC(O)C(CO)O2)c(=O)[nH]c1=O)C(I)I (configuration not stated)	> 100 µM (inactive)	> 100 µM (inactive)	> 100 µM (inactive)	> 100 µM (inactive)	> 100 µM (inactive)	56.1 µM (inactive)	> 100 µM (inactive)	> 100 µM (inactive)	> 100 µM (inactive)	> 100 µM (inactive)	> 100 µM (inactive)	–	> 100 µM (inactive)	> 100 µM (inactive)	> 100 µM (inactive)	> 100 µM (inactive)
C=CCOC1=C2CC[C@H](O)[C@@]2(C)CCC1=O	> 100 µM (inactive)	> 100 µM (inactive)	> 100 µM (inactive)	> 100 µM (inactive)	> 100 µM (inactive)	> 100 µM (inactive)	> 100 µM (inactive)	> 100 µM (inactive)	> 100 µM (inactive)	> 100 µM (inactive)	> 100 µM (inactive)	> 100 µM (inactive)	> 100 µM (inactive)	–	> 100 µM (inactive)	> 100 µM (inactive)
CC(=O)OCC1OC(n2c(=S)n(-c3ccccc3)c(=O)c3cc(Br)ccc32)C(OC(C)=O)C(OC(C)=O)C1OC(C)=O (configuration not stated)	> 100 µM (inactive)	> 100 µM (inactive)	> 100 µM (inactive)	> 100 µM (inactive)	> 100 µM (inactive)	> 100 µM (inactive)	–	> 100 µM (inactive)	> 100 µM (inactive)	> 100 µM (inactive)	> 100 µM (inactive)	–	> 100 µM (inactive) and 94.6 µM (inactive)	> 100 µM (inactive)	–	–
COc1ccc(N2C(=O)c3c(c4[nH]c5ccccc5c4c4ccc(C(C)(C)C)cc34)C2=O)cc1	78.5 µM (inactive)	21.3 µM (inactive)	–	22.5 µM (inactive)	> 100 µM (inactive)	29.2 µM (inactive)	69.7 µM (inactive)	27.2 µM (inactive)	37.3 µM (inactive)	46.3 µM (inactive)	40.5 µM (inactive)	16.6 µM (inactive)	21.6 µM (inactive)	> 100 µM (inactive)	45.7 µM (inactive)	83 µM (inactive)
Cn1ncc(=S)[nH]c1=S	> 100 µM (inactive)	> 100 µM (inactive)	> 100 µM (inactive)	> 100 µM (inactive)	–	> 100 µM (inactive)	> 100 µM (inactive)	> 100 µM (inactive)	> 100 µM (inactive)	> 100 µM (inactive)	> 100 µM (inactive)	97.7 µM (inactive)	> 100 µM (inactive)	> 100 µM (inactive)	> 100 µM (inactive)	> 100 µM (inactive)
Cc1cccc(-c2nnc(S)[nH]2)c1	> 100 µM (inactive)	> 100 µM (inactive)	> 100 µM (inactive)	> 100 µM (inactive)	> 100 µM (inactive)	> 100 µM (inactive)	> 100 µM (inactive)	> 100 µM (inactive)	> 100 µM (inactive)	> 100 µM (inactive)	> 100 µM (inactive)	> 100 µM (inactive)	89.5 µM (inactive)	> 100 µM (inactive)	–	> 100 µM (inactive)
Cc1noc(C)c1C1=CCCCc2ccccc21	85.5 µM (inactive)	78.9 µM (inactive)	25.9 µM (inactive)	> 100 µM (inactive)	> 100 µM (inactive)	> 100 µM (inactive)	> 100 µM (inactive)	79.4 µM (inactive)	> 100 µM (inactive)	87.9 µM (inactive)	–	23.4 µM (inactive)	25.7 µM (inactive)	31.4 µM (inactive)	72.8 µM (inactive)	97.5 µM (inactive)
